According to PubChem BioAssay AID723 (NMMLSC, 2007):
The source made the active and inactive calls. The rule behind the calls is not given here.

Target: N-formyl peptide receptor 2 (Homo sapiens) (UniProt P25090)
Test: human FPR2 ligand displacement potency – cell-based, flow cytometry, Ki from IC50, selectivity assay for FPR1 ligand SAR project, dose response (AID 723)
Settings: FPRL1-expressing cells, fluorescent ligand binding competition; for Ki: measured here: Ki from IC50

N-formyl peptide receptor 2 (Homo sapiens), sequence (P25090 whole entry, looked up): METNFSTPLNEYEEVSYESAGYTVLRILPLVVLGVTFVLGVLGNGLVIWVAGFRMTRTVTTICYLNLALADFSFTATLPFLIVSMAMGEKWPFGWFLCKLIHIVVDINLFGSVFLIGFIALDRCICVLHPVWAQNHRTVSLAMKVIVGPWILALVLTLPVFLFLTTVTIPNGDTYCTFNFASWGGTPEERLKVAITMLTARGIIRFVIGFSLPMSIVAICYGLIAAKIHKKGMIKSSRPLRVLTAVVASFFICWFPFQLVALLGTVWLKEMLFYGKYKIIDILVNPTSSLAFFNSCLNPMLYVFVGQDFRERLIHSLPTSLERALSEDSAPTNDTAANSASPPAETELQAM

IC50	Ki [µM]	Compound
> 66.7 µM (inactive)	> 40.3	O=C(C1=C(O)C(=O)N(CCc2ccccc2)C1c1ccc(Cl)cc1)c1cccs1 (stereo not drawn)
> 66.7 µM (inactive)	> 40.3	CCCCCCOc1cccc(N2C(=O)C(=O)/C(=C(\O)c3ccccc3)C2c2cccc(F)c2)c1 (stereo not drawn)
> 66.7 µM (inactive)	> 40.3	Cc1ccc(N2C(=O)C(=O)/C(=C(\O)c3ccccc3)C2c2cccc(F)c2)cc1Br (stereo not drawn)
> 66.7 µM (inactive)	> 40.3	Cc1ccc(/C(O)=C2\C(=O)C(=O)N(c3nnc(C)s3)C2c2ccc(C(C)C)cc2)cc1 (stereo not drawn)
> 66.7 µM (inactive)	> 40.3	COc1ccc(C2/C(=C(\O)c3ccccc3)C(=O)C(=O)N2CCCn2ccnc2)c(OC)c1 (stereo not drawn)
> 66.7 µM (inactive)	> 40.3	COc1ccc(OC)c(C2/C(=C(\O)c3ccc(C)cc3)C(=O)C(=O)N2CCC(=O)O)c1 (stereo not drawn)
–	> 40.3	COc1ccc(-c2c(C)[nH]n3c(=O)c4c(nc23)CCCC4)cc1
–	> 40.3	O=C(Oc1ccc2c(=O)c(-c3ccccc3Cl)c(C(F)(F)F)oc2c1)c1cccs1
–	> 40.3	O=C(Oc1ccc2c(=O)c(Oc3ccccc3Br)c(C(F)(F)F)oc2c1)c1cccs1
–	> 40.3	COc1ccc(-c2c(C(F)(F)F)oc3c(CN4CCOCC4)c(O)ccc3c2=O)cc1OC
–	> 40.3	COc1ccc(-c2c(C(F)(F)F)oc3cc(OC(=O)c4ccco4)ccc3c2=O)cc1OC
> 66.7 µM (inactive)	> 40.3	O=C(C1=C(O)C(=O)N(CCCN2CCOCC2)C1c1cccnc1)c1cc2ccccc2o1 (stereo not drawn)
> 66.7 µM (inactive)	> 40.3	COCCCN1C(=O)C(=O)/C(=C(/O)c2ccccc2)C1c1ccc(O)c(OC)c1 (stereo not drawn)
> 66.7 µM (inactive)	> 40.3	COc1ccc(/C(O)=C2/C(=O)C(=O)N(CCc3c[nH]c4ccccc34)C2c2ccc(C(C)C)cc2)cc1 (stereo not drawn)
–	> 40.3	Cc1sc2c(c1C)c(=O)n(Cc1ccccc1)c(=O)n2Cc1ccccc1F
> 66.7 µM (inactive)	> 40.3	N#Cc1c(N/C(=C\C(=O)c2ccccc2)C(=O)O)sc2c1CCC2
> 66.7 µM (inactive)	> 40.3	O=C(C1=C(O)C(=O)N(CCCn2ccnc2)C1c1cccnc1)c1ccco1 (stereo not drawn)
> 66.7 µM (inactive)	> 40.3	COc1ccc(C2C(C(=O)c3cccs3)=C(O)C(=O)N2CCCn2ccnc2)cc1 (stereo not drawn)
> 66.7 µM (inactive)	> 40.3	COCCCN1C(=O)C(=O)/C(=C(/O)c2ccccc2)C1c1ccc(C(C)C)cc1 (stereo not drawn)
> 66.7 µM (inactive)	> 40.3	COCCN1C(=O)C(=O)/C(=C(/O)c2ccccc2)C1c1ccccc1OC (stereo not drawn)
–	> 40.3	CC(C)C(=O)N(Cc1ccco1)S(=O)(=O)c1cccc2cccnc12

More lines, now with the values behind:

Compound	IC50	Ki [µM]
COc1ccc(/C(O)=C2/C(=O)C(=O)NC2c2ccc(OC)cc2OC)cc1 (stereo not drawn)	> 66.7 µM (inactive)	> 40.3
COc1ccc(C2C(C(=O)c3ccco3)=C(O)C(=O)N2CCCN2CCOCC2)cc1OC (stereo not drawn)	> 66.7 µM (inactive)	> 40.3
Cc1ccc(/C(O)=C2\C(=O)C(=O)N(Cc3cccnc3)C2c2ccc(Br)cc2)cc1 (stereo not drawn)	> 66.7 µM (inactive)	> 40.3
COc1ccc(C2/C(=C(\O)c3ccccc3)C(=O)C(=O)N2c2cccc(Cl)c2)c(OC)c1 (stereo not drawn)	> 66.7 µM (inactive)	> 40.3
O=C(C1=C(O)C(=O)N(CCCn2ccnc2)C1c1cccnc1)c1cc2ccccc2o1 (stereo not drawn)	> 66.7 µM (inactive)	> 40.3
CC(=O)C1=C(O)C(=O)N(CCc2c(C)[nH]c3ccccc23)C1c1cccc(F)c1 (stereo not drawn)	> 66.7 µM (inactive)	> 40.3
COc1cc(C2C(C(C)=O)=C(O)C(=O)N2c2ccc(Br)cc2)ccc1O (stereo not drawn)	> 66.7 µM (inactive)	> 40.3
CCC(C)(C(=O)NC1CCCCC1)N(Cc1cccs1)C(C)=O (stereo not drawn)	–	> 40.3
Cc1cccc(C)c1NC(=O)C(NC(=O)Cc1cccs1)c1ccccc1 (stereo not drawn)	–	> 40.3
COc1cccc(/C=C2/C(=O)NN(c3ccc(C)cc3)C2=O)c1	–	> 40.3
COc1ccc(C2C(C(=O)N3CCCC(C)C3)c3ccccc3C(=O)N2C)cc1 (stereo not drawn)	–	> 40.3
COc1cccc(-c2ccnc3[nH]n(-c4ccccc4)c(=O)c23)c1	–	> 40.3
O=C1C(=O)N(c2ccc(F)cc2)C(c2ccc(Br)cc2)/C1=C(/O)c1ccccc1 (stereo not drawn)	> 66.7 µM (inactive)	> 40.3
O=C(O)C1CCCCC1C(=O)Nc1ccc(Br)cc1 (stereo not drawn)	–	> 40.3
CCc1cc2c(=O)c(-c3nc4ccccc4n3C)c(C)oc2cc1OC(C)=O	–	> 40.3
COc1ccccc1-c1c(C(F)(F)F)oc2cc(OC(=O)c3ccco3)ccc2c1=O	–	> 40.3
COc1ccc(OC)c(C2/C(=C(\O)c3ccccc3)C(=O)C(=O)N2c2cccnc2)c1 (stereo not drawn)	> 66.7 µM (inactive)	> 40.3
COc1ccc(C2C(C(=O)c3cc4ccccc4o3)=C(O)C(=O)N2CCN(C)C)cc1OC (stereo not drawn)	> 66.7 µM (inactive)	> 40.3

Compound	IC50	Ki [µM]
COc1ccc(C2/C(=C(\O)c3ccc(C)cc3)C(=O)C(=O)N2Cc2cccnc2)c(OC)c1 (stereo not drawn)	> 66.7 µM (inactive)	> 40.3
COc1ccc(C2C(C(=O)c3cccs3)=C(O)C(=O)N2CCN2CCOCC2)c(OC)c1 (stereo not drawn)	> 66.7 µM (inactive)	> 40.3
O=C1CC(c2ccccc2C(F)(F)F)C2=C(CC(c3cccs3)CC2=O)N1 (stereo not drawn)	–	> 40.3
Cc1cccc(C2CC(=O)NC3=C2C(=O)CC(c2cccs2)C3)c1 (stereo not drawn)	–	> 40.3
CCCCCCN1C(=O)C(=O)/C(=C(\O)c2ccccc2)C1c1ccc(O)c(OC)c1 (stereo not drawn)	> 66.7 µM (inactive)	> 40.3
O=C1NC(c2ccc(Br)cc2)/C(=C(\O)c2ccc(Cl)cc2)C1=O (stereo not drawn)	> 66.7 µM (inactive)	> 40.3
O=C(O)CCCN1C(=O)C(=O)/C(=C(/O)c2ccccc2)C1/C=C/c1ccccc1 (stereo not drawn)	> 66.7 µM (inactive)	> 40.3
CC(C)c1ccc(C2/C(=C(\O)c3ccccc3)C(=O)C(=O)N2Cc2cccnc2)cc1 (stereo not drawn)	> 66.7 µM (inactive)	> 40.3
COCCN1C(=O)C(=O)/C(=C(/O)c2ccccc2)C1c1cc(OC)ccc1OC (stereo not drawn)	> 66.7 µM (inactive)	> 40.3
COc1ccc(-c2c(C(F)(F)F)oc3cc(OC(=O)c4cccnc4)ccc3c2=O)cc1OC	–	> 40.3
Cc1nc2c(-c3ccc(Cl)cc3)c(C(F)(F)F)[nH]n2c(=O)c1Cc1ccccc1	–	> 40.3
COc1ccc(C2C(C(=O)c3ccco3)=C(O)C(=O)N2CCN2CCOCC2)c(OC)c1 (stereo not drawn)	> 66.7 µM (inactive)	> 40.3
COc1cc(C2C(C(=O)c3cc4ccccc4o3)=C(O)C(=O)N2CCN(C)C)ccc1O (stereo not drawn)	> 66.7 µM (inactive)	> 40.3
O=C1C(=O)N(CN2CCOCC2)C(c2ccc(Br)cc2)/C1=C(\O)c1ccccc1 (stereo not drawn)	> 66.7 µM (inactive)	> 40.3
CCCC(=O)N(Cc1ccco1)S(=O)(=O)c1cccc2cccnc12	–	> 40.3
COc1ccc(OC)c(CNC(=O)Cn2c(=O)sc3ccccc32)c1	–	> 40.3
COCCN1C(=O)C(=O)/C(=C(/O)c2ccccc2)C1c1ccc(C(C)C)cc1 (stereo not drawn)	> 66.7 µM (inactive)	> 40.3
COc1ccc(OC)c(C2/C(=C(\O)c3ccccc3)C(=O)C(=O)N2c2ccc(C)c(Cl)c2)c1 (stereo not drawn)	> 66.7 µM (inactive)	> 40.3
